Results taken from article PMC5034536, “Molecular insights into substrate recognition and catalytic mechanism of the chaperone and FKBP peptidyl-prolyl isomerase SlyD” (BMC Biology, 2016).
Values joined by “and” are separate entries in the source; they are usually repeats but may differ in a detail not shown here. Equal entries are not always repeated.

Columns and labels:
TtSlyDFL Y13F = TtSlyDFL Y13F (Thermus thermophilus, UniProt Q5SLE7, Y13F); experiment: Tetrapeptide activity by NMR lineshape analysis
Sequence of TtSlyDFL Y13F (Q5SLE7 entry or part of it Y13F): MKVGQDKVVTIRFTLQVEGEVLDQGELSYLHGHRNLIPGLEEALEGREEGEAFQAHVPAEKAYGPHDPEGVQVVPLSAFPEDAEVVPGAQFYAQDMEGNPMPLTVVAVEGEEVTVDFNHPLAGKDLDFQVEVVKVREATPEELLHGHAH
Description: (§3) Although the kcat/KM and KD values refer to different substrates, this analysis should provide valuable insights into the relative impact of a given mutation on binding and turnover.
(§4) NMR samples contained TtSlyD in 20 mM HEPES, 100 mM NaCl, pH 7.5, and 10 % (v/v) D2O. All experiments were performed at a static magnetic field strength of 14.1 T and a temperature of 25 °C. […] Lineshape analysis was performed using MATLAB.
(§5) For tetrapeptide activity studies, one-dimensional ^1H spectra of 500 μM suc-ALPF-pNA tetrapeptide containing 2 μM, 4 μM, or 6 μM of TtSlyD were recorded for the different mutants [59].

TtSlyDFL = experiment: Tetrapeptide cis/trans isomerization activity by NMR lineshape analysis; type: biochemical, Thermus thermophilus
Description: (§1) In order to accurately measure the catalytic activity of TtSlyDFL on peptidyl-prolyl cis/trans isomerization, we carried out Michaelis-Menten studies under equilibrium conditions using NMR lineshape analysis, which is capable of monitoring the rate of exchange between cis and trans conformations of the peptide substrate. Initially, we benchmarked the method against literature data using the standard suc-ALPF-pNA tetrapeptide (Fig. 7a). […] For the TtSlyDΔIF construct, we obtained kcat/KM = 0.85 ± 0.01 μM^−1s^−1, showing a minor influence of the IF domain.
(§2) Lineshape analysis was performed using MATLAB.

TtSlyDΔIF = experiment: as above; type: biochemical, Thermus thermophilus
Description: as §1, §2

TtSlyDFL N35A = TtSlyDFL N35A (Thermus thermophilus, UniProt Q5SLE7, N35A); experiment: Tetrapeptide activity by NMR lineshape analysis
Sequence of TtSlyDFL N35A (Q5SLE7 entry or part of it N35A): as the sequence (Q5SLE7 entry or part of it Y13F) above, with F13Y, N35A counted along it
Description: as §3, §4, §5

TtSlyDFL Y63A = TtSlyDFL Y63A (Thermus thermophilus, UniProt Q5SLE7, Y63A); experiment: Tetrapeptide activity by NMR lineshape analysis
Sequence of TtSlyDFL Y63A (Q5SLE7 entry or part of it Y63A): as the sequence (Q5SLE7 entry or part of it Y13F) above, with F13Y, Y63A counted along it
Description: as §4, §5

TtSlyDFL Y92A = TtSlyDFL Y92A (Thermus thermophilus, UniProt Q5SLE7, Y92A); experiment: Tetrapeptide activity by NMR lineshape analysis
Sequence of TtSlyDFL Y92A (Q5SLE7 entry or part of it Y92A): as the sequence (Q5SLE7 entry or part of it Y13F) above, with F13Y, Y92A counted along it
Description: as §4, §5

TtSlyDFL H119A = TtSlyDFL H119A (Thermus thermophilus, UniProt Q5SLE7, H119A); experiment: Tetrapeptide activity by NMR lineshape analysis
Sequence of TtSlyDFL H119A (Q5SLE7 entry or part of it H119A): as the sequence (Q5SLE7 entry or part of it Y13F) above, with F13Y, H119A counted along it
Description: (§6) NMR samples contained TtSlyD in 20 mM HEPES, 100 mM NaCl, pH 7.5, and 10 % (v/v) D2O. All experiments were performed at a static magnetic field strength of 14.1 T and a temperature of 25 °C. The spectra were processed with NMRpipe [57] and analyzed with NMRview [58], except one-dimensional spectra, which were processed and analyzed using VNMRJ (Agilent, Inc.). Lineshape analysis was performed using MATLAB.
as §5

E. coli SlyD = conditions: estimated, E. coli SlyD at high salt concentration; cited from earlier work
TtSlyDFL I37G = TtSlyDFL I37G (Thermus thermophilus, UniProt Q5SLE7, I37G); experiment: Tetrapeptide activity by NMR lineshape analysis
Sequence of TtSlyDFL I37G (Q5SLE7 entry or part of it I37G): as the sequence (Q5SLE7 entry or part of it Y13F) above, with F13Y, I37G counted along it
Description: as §3, §4, §5

TtSlyDFL F128A = TtSlyDFL F128A (Thermus thermophilus, UniProt Q5SLE7, F128A); experiment: Tetrapeptide activity by NMR lineshape analysis
Sequence of TtSlyDFL F128A (Q5SLE7 entry or part of it F128A): as the sequence (Q5SLE7 entry or part of it Y13F) above, with F13Y, F128A counted along it
Description: as §6, §5

TtSlyDFL A78G = TtSlyDFL A78G (Thermus thermophilus, UniProt Q5SLE7, A78G); experiment: Tetrapeptide activity by NMR lineshape analysis
Sequence of TtSlyDFL A78G (Q5SLE7 entry or part of it A78G): as the sequence (Q5SLE7 entry or part of it Y13F) above, with F13Y, A78G counted along it
Description: as §4, §5

human FKBP12 = human FKBP12 with suc-ALPF-pNA as a substrate; ref U Weininger, unpublished data; cited from earlier work
TtSlyDFL Y63F = TtSlyDFL Y63F (Thermus thermophilus, UniProt Q5SLE7, Y63F); experiment: Tetrapeptide activity by NMR lineshape analysis
Sequence of TtSlyDFL Y63F (Q5SLE7 entry or part of it Y63F): as the sequence (Q5SLE7 entry or part of it Y13F) above, with F13Y, Y63F counted along it
Description: as §3, §4, §5

TtSlyDFL M96A = TtSlyDFL M96A (Thermus thermophilus, UniProt Q5SLE7, M96A); experiment: Tetrapeptide activity by NMR lineshape analysis
Sequence of TtSlyDFL M96A (Q5SLE7 entry or part of it M96A): as the sequence (Q5SLE7 entry or part of it Y13F) above, with F13Y, M96A counted along it
Description: as §4, §5

TtSlyDFL Q94A = TtSlyDFL Q94A (Thermus thermophilus, UniProt Q5SLE7, Q94A); experiment: Tetrapeptide activity by NMR lineshape analysis
Sequence of TtSlyDFL Q94A (Q5SLE7 entry or part of it Q94A): as the sequence (Q5SLE7 entry or part of it Y13F) above, with F13Y, Q94A counted along it
Description: as §4, §5

TtSlyDFL D23A = TtSlyDFL D23A (Thermus thermophilus, UniProt Q5SLE7, D23A); experiment: Tetrapeptide activity by NMR lineshape analysis
Sequence of TtSlyDFL D23A (Q5SLE7 entry or part of it D23A): as the sequence (Q5SLE7 entry or part of it Y13F) above, with F13Y, D23A counted along it
Description: as §3, §4, §5

[1] = substrate 500 μM suc-ALPF-pNA, NMR lineshape analysis, 25 °C
[2] = suc-ALPF-pNA, relative to wild-type TtSlyDFL

succinyl-Ala-Leu-Pro-Phe-4-nitroanilide [suc-ALPF-pNA]
Activity (kcat/KM) (TtSlyDFL Y13F; [1]): 1.35 ± 0.17 10^6 M/s
Relative activity (TtSlyDFL Y13F; [2]): 92%
kcat (TtSlyDFL; TtSlyD, suc-ALPF-pNA tetrapeptide as substrate): > 10,000 s^−1
kcat/KM (TtSlyDFL; TtSlyDFL, 500 μM suc-ALPF-pNA, enzyme concentration varied, linear regression, 25 °C): 1.47 ± 0.05 10^6 M^−1s^−1 and 1.5 10^6 M^−1s^−1
Activity (kcat/KM) (TtSlyDFL; wild-type TtSlyDFL, substrate 500 μM suc-ALPF-pNA, NMR lineshape analysis, 25 °C): 1.47 ± 0.05 10^6 M^-1 s^-1
kcat/KM (TtSlyDFL; wild-type TtSlyDFL, suc-ALPF-pNA as substrate, NMR lineshape analysis, equilibrium conditions, 25 °C): 1.47 ± 0.05 µM⁻¹ s⁻¹
Relative activity (TtSlyDFL; wild-type TtSlyDFL, suc-ALPF-pNA, reference): 100%
kcat/KM (TtSlyDΔIF; 500 μM suc-ALPF-pNA, enzyme concentration varied, linear regression, 25 °C): 0.85 ± 0.01 10^6 M^−1s^−1
Activity (kcat/KM) (TtSlyDΔIF; [1]): 0.85 ± 0.01 10^6 M^-1 s^-1
kcat/KM (TtSlyDΔIF; suc-ALPF-pNA as substrate, NMR lineshape analysis, 25 °C): 0.85 ± 0.01 µM⁻¹ s⁻¹
Relative activity (TtSlyDΔIF; [2]): 58%
Activity (kcat/KM) (TtSlyDFL N35A; [1]): 1.04 ± 0.28 10^6 M/s
Relative activity (TtSlyDFL N35A; [2]): 71%
Activity (kcat/KM) (TtSlyDFL Y63A; [1]): 0.31 ± 0.19 10^6 M/s
Relative activity (TtSlyDFL Y63A; [2]): 21%
Activity (kcat/KM) (TtSlyDFL Y92A; [1]): 0.53 ± 0.12 10^6 M/s
Relative activity (TtSlyDFL Y92A; [2]): 36%
Activity (kcat/KM) (TtSlyDFL H119A; [1]): 1.23 ± 0.02 10^6 M/s
Relative activity (TtSlyDFL H119A; [2]): 84%
Kd (E. coli SlyD): ~44 µM
Activity (kcat/KM) (TtSlyDFL I37G; [1]): 0.73 ± 0.12 10^6 M/s
Relative activity (TtSlyDFL I37G; [2]): 50%
Activity (kcat/KM) (TtSlyDFL F128A; [1]): 0.52 ± 0.16 10^6 M/s
Relative activity (TtSlyDFL F128A; [2]): 35%
Activity (kcat/KM) (TtSlyDFL A78G; [1]): 0.76 ± 0.14 10^6 M/s
Relative activity (TtSlyDFL A78G; [2]): 52%
kcat (human FKBP12): above 10,000 s^−1
Activity (kcat/KM) (TtSlyDFL Y63F; [1]): 1.12 ± 0.11 10^6 M/s
Relative activity (TtSlyDFL Y63F; [2]): 76%
Activity (kcat/KM) (TtSlyDFL M96A; [1]): 0.58 ± 0.15 10^6 M/s
Relative activity (TtSlyDFL M96A; [2]): 39%
Activity (kcat/KM) (TtSlyDFL Q94A; [1]): 1.44 ± 0.49 10^6 M/s
Relative activity (TtSlyDFL Q94A; [2]): 98%
Activity (kcat/KM) (TtSlyDFL D23A; [1]): 1.15 ± 0.21 10^6 M/s
Relative activity (TtSlyDFL D23A; [2]): 78%
